From patent publication CN110179802A (priority 2019, dated 2019)

How the values were obtained:
[1] = tested on: haemolytic activity of MRSA43300 culture supernatant on rabbit erythrocytes (MRSA43300培养物上清对兔红细胞的溶血活性); experiment: Haemolytic activity of MRSA43300 culture supernatant on rabbit erythrocytes after co-culture at sub-inhibitory concentrations; format: cell-based, MRSA 43300 (Staphylococcus aureus); rabbit erythrocytes; conditions: for inhibition rate of haemolysis: 16 h at 37℃ with MRSA43300, 543 nm
α-hemolysin (α-溶血素) = format: cell-based, Staphylococcus aureus (MRSA43300)
MRSA43300 = experiment: Antibacterial activity against MRSA43300; format: cell-based, Staphylococcus aureus (MRSA43300)
[2] = tested on: Staphylococcus aureus (金黄色葡萄球菌); conditions: cited from earlier work
MRSA = conditions: cited from earlier work
[3] = tested on: Streptococcus pyogenes (酿脓链球菌); conditions: cited from earlier work
[4] = tested on: Mycoplasma pneumonia (肺炎支原体); conditions: cited from earlier work
Pyogeniccoccus (化脓链球菌) = conditions: cited from earlier work
[5] = in vivo; cited from earlier work
HIa gene (HIa基因) = experiment: Real-time PCR of HIa gene transcription in MRSA43300
agrA gene (agrA基因) = experiment: Real-time PCR of agrA gene transcription in MRSA43300
[6] = 1/2MIC, 1/4MIC, 1/8MIC, compared with control group

Structure (SMILES): C=C[C@]1(C)C[C@@H](OC(=O)CSc2nc(N)cc(N)n2)[C@]2(C)[C@H](C)CC[C@]3(CCC(=O)[C@H]32)[C@@H](C)[C@@H]1O [14-O-[(4,6-二氨基嘧啶-2-基)巯乙酰基]姆体林]
- inhibition rate of haemolysis ([1]; 1/2MIC): 97.24±1.15%
- inhibition rate of haemolysis ([1]; 1/4MIC): 96.4±2.1%
- inhibition rate of haemolysis ([1]; 1/16MIC): 31.5±7.86%
- inhibition of haemolytic activity, concentration dependence ([1]; sub-inhibitory concentrations, 1/2MIC to 1/32MIC): 抑制能力随药物浓度的升高而增强
- content of α-hemolysin in culture supernatant (α-hemolysin (α-溶血素)): 能减少培养物上清中的α-溶血素的含量,且呈明显的浓度依赖性
- antibacterial activity (MRSA43300): 较好抑菌活性
- antibacterial activity [2]: 良好的抑菌活性
- antibacterial activity (MRSA): 良好的抑菌活性
- antibacterial activity [3]: 良好的抑菌活性
- antibacterial activity [4]: 良好的抑菌活性
- antibacterial activity (Pyogeniccoccus (化脓链球菌)): 良好的抑菌活性
- toxicity [5]: 毒性低
- HIa gene transcription level (HIa gene (HIa基因); [6]): 与对照组相比差异极显著
- HIa gene transcription level (HIa gene (HIa基因); 1/16MIC, compared with control group): 与对照组相比差异显著
- HIa gene transcription level (HIa gene (HIa基因); 1/32MIC): 不影响HIa基因转录水平
- agrA gene transcription level (agrA gene (agrA基因); [6]): 与对照组相比差异显著
- agrA gene transcription level (agrA gene (agrA基因); 1/16MIC): 没有明显的影响
- agrA gene transcription level (agrA gene (agrA基因); 1/32MIC): 不影响agrA的基因转录水平
